Assay results reported in patent publication US12498382B2, “Biomarkers for vitiligo” (INCYTE CORPORATION, priority 2019, dated 2025).

Test system: HaCaT cells
Assay: Normalized expression of target genes in HaCaT cells stimulated with TNFα and IFNγ in presence/absence of JAK inhibitors (QuantiGene Plex)
Type: cell-based, human
Experimental: Transformed human keratinocyte (HaCaT) cells were purchased from AddexBio (Catalog #T0020001) and cultured as outlined in Example 5. […] After 48 hours, cell culture media was removed from 24 well plates and replaced with 250 uL of media containing serial diluted drug, then incubated for 15 minutes at 37° C./5% CO2. After drug incubation, 250 uL of combinatory stimulation containing Recombinant Human Interferon gamma (R&D Systems, Catalog #285-IF-100) and Recombinant Human Tumor Necrosis Factor alpha (R&D Systems, Catalog #210-TA-020) was added to plates. The final concentration of Recombinant Human Interferon gamma and Recombinant Human Tumor Necrosis Factor alpha was 25 ng/mL of each cytokine. Cytokine stimulation added to wells containing drug brought the final concentrations for each drug treatment to 25 nM, 50 nM, 100 nM, and 200 nM. Treated plates were mixed by gentle agitation for 30 seconds then incubated for 24 hours at 37° C./5% CO2. At the end of the 24 hour incubation media was immediately removed from each plate.
RNA was isolated from HaCaT cells using the QuantiGene Plex Assay reagents and protocols (Affymetrix, Catalog #QGP-232-M18042302) according to the manufacturer's guidelines. Cells were washed with 1×DPBS then lysed by incubation with provided QuantiGene lysis buffer for 30 minutes at 50-55° C. Cell lysates were incubated for 18-24 hours at 55° C. with capture beads and probe set designed to specifically hybridize to mRNA from targets of interest. Genes included housekeeping genes (e.g., HPRT1 and GAPDH) used for the normalization of the results. After the 18-24 hour incubation signal was amplified utilizing branched DNA methodologies, according to the manufacturer's procedures (Affymetrix, Catalog #QGP-232-M18042302). After hybridization and wash steps assay plate was read on the Luminex 200 and data were expressed as Net Median Fluorescence Intensity. Data was then normalized to the Net Median Fluorescence Intensity of the housekeeping gene HPRT1 (Table 14).

[1] = TNFα+IFNγ 25 ng/mL, Drug Conc 25 nM
[2] = TNFα+IFNγ 25 ng/mL, Drug Conc 50 nM
[3] = TNFα+IFNγ 25 ng/mL, Drug Conc 100 nM
[4] = TNFα+IFNγ 25 ng/mL, Drug Conc 200 nM
[5] = no stimulation, Drug Conc 200 nM

SMILES: N#CCC1(n2cc(-c3ncnc4[nH]ccc34)cn2)CN(C2CCN(C(=O)c3ccnc(C(F)(F)F)c3F)CC2)C1 [Cpd B, {1-{1-[3-fluoro-2-(trifluoromethyl)isonicotinoyl]piperidin-4-yl}-3[4-(7H-pyrrolo[2,3-d]pyrimidin-4-yl)-1H-pyrazol-1-yl]azetidin-3-yl}acetonitrile]
- AREG normalized expression MFI [1]: 737.85 ± 22.1
- CCL17 normalized expression MFI [1]: 3.37 ± 0.54
- CCL18 normalized expression MFI [1]: 2.12 ± 0.32
- FLG normalized expression MFI [1]: 71.57 ± 9.14
- IL6 normalized expression MFI [1]: 130.24 ± 3.84
- IL8 normalized expression MFI [1]: 381.74 ± 10.25
- IL17A normalized expression MFI [1]: 0.88 ± 0.13
- IL22 normalized expression MFI [1]: 1.21 ± 0.24
- IL23A normalized expression MFI [1]: 43.92 ± 1.89
- IL31 normalized expression MFI [1]: 1.33 ± 0.33
- ILIA normalized expression MFI [1]: 1288.02 ± 20
- IYK2 normalized expression MFI [1]: 292.92 ± 7.99
- JAK1 normalized expression MFI [1]: 216.23 ± 6.41
- JAK2 normalized expression MFI [1]: 109.39 ± 2.8
- JAK3 normalized expression MFI [1]: 0.84 ± 0.12
- LOR normalized expression MFI [1]: 43.2 ± 14.11
- S100A7 normalized expression MFI [1]: 5.45 ± 1.02
- S100A12 normalized expression MFI [1]: 1.21 ± 0.16
- SERPINB3 normalized expression MFI [1]: 3.16 ± 0.43
- SERPINB4 normalized expression MFI [1]: 4.23 ± 0.7
- STAT1 normalized expression MFI [1]: 2861.37 ± 204.56
- STAT3 normalized expression MFI [1]: 1466.73 ± 66.75
- STAT4 normalized expression MFI [1]: 6 ± 0.46
- STAT5A normalized expression MFI [1]: 23.69 ± 1.63
- STAT5B normalized expression MFI [1]: 40.74 ± 2.3
- STAT6 normalized expression MFI [1]: 1004.82 ± 23.76
- TNF normalized expression MFI [1]: 28.04 ± 1.24
- VEGFA normalized expression MFI [1]: 553.23 ± 11.38
- AREG normalized expression MFI [2]: 701.57 ± 12.75
- CCL17 normalized expression MFI [2]: 3.06 ± 0.34
- CCL18 normalized expression MFI [2]: 2.2 ± 0.35
- FLG normalized expression MFI [2]: 74.31 ± 8.77
- IL6 normalized expression MFI [2]: 122.69 ± 4.36
- IL8 normalized expression MFI [2]: 376.41 ± 13.16
- IL17A normalized expression MFI [2]: 0.92 ± 0.14
- IL22 normalized expression MFI [2]: 1.15 ± 0.18
- IL23A normalized expression MFI [2]: 45.85 ± 2.3
- IL31 normalized expression MFI [2]: 1.22 ± 0.29
- ILIA normalized expression MFI [2]: 1258.76 ± 23.63
- IYK2 normalized expression MFI [2]: 287.31 ± 11.08
- JAK1 normalized expression MFI [2]: 210.42 ± 10.89
- JAK2 normalized expression MFI [2]: 101 ± 2.26
- JAK3 normalized expression MFI [2]: 0.83 ± 0.15
- LOR normalized expression MFI [2]: 43.96 ± 15.87
- S100A7 normalized expression MFI [2]: 7.08 ± 1.99
- S100A12 normalized expression MFI [2]: 1.04 ± 0.15
- SERPINB3 normalized expression MFI [2]: 2.3 ± 0.34
- SERPINB4 normalized expression MFI [2]: 3.76 ± 0.66
- STAT1 normalized expression MFI [2]: 2855.28 ± 166.89
- STAT3 normalized expression MFI [2]: 1437.28 ± 60.69
- STAT4 normalized expression MFI [2]: 6.22 ± 0.42
- STAT5A normalized expression MFI [2]: 22.32 ± 2.16
- STAT5B normalized expression MFI [2]: 42.9 ± 2.44
- STAT6 normalized expression MFI [2]: 990.05 ± 21.06
- TNF normalized expression MFI [2]: 28.66 ± 2.58
- VEGFA normalized expression MFI [2]: 545.93 ± 9.71
- AREG normalized expression MFI [3]: 731.24 ± 25.4
- CCL17 normalized expression MFI [3]: 2.87 ± 0.33
- CCL18 normalized expression MFI [3]: 2.01 ± 0.44
- FLG normalized expression MFI [3]: 74.99 ± 8.16
- IL6 normalized expression MFI [3]: 111.07 ± 4.74
- IL8 normalized expression MFI [3]: 387.33 ± 19.5
- IL17A normalized expression MFI [3]: 0.85 ± 0.15
- IL22 normalized expression MFI [3]: 1 ± 0.17
- IL23A normalized expression MFI [3]: 53.05 ± 3.22
- IL31 normalized expression MFI [3]: 1.04 ± 0.31
- ILIA normalized expression MFI [3]: 1162.35 ± 23.34
- IYK2 normalized expression MFI [3]: 284.15 ± 9.62
- JAK1 normalized expression MFI [3]: 205.03 ± 11.49
- JAK2 normalized expression MFI [3]: 94.5 ± 2.65
- JAK3 normalized expression MFI [3]: 0.92 ± 0.13
- LOR normalized expression MFI [3]: 31.4 ± 10.44
- S100A7 normalized expression MFI [3]: 3.83 ± 1.02
- S100A12 normalized expression MFI [3]: 1 ± 0.17
- SERPINB3 normalized expression MFI [3]: 2.2 ± 0.35
- SERPINB4 normalized expression MFI [3]: 2.87 ± 0.48
- STAT1 normalized expression MFI [3]: 2783.68 ± 179.19
- STAT3 normalized expression MFI [3]: 1373.34 ± 55.51
- STAT4 normalized expression MFI [3]: 6.21 ± 0.48
- STAT5A normalized expression MFI [3]: 20.87 ± 2.1
- STAT5B normalized expression MFI [3]: 40.75 ± 2.41
- STAT6 normalized expression MFI [3]: 987.64 ± 15.75
- TNF normalized expression MFI [3]: 29.5 ± 2.82
- VEGFA normalized expression MFI [3]: 524.82 ± 13.65
- AREG normalized expression MFI [4]: 730.41 ± 24.58
- CCL17 normalized expression MFI [4]: 3.13 ± 0.48
- CCL18 normalized expression MFI [4]: 1.68 ± 0.32
- FLG normalized expression MFI [4]: 87.37 ± 10.99
- IL6 normalized expression MFI [4]: 93.03 ± 3.25
- IL8 normalized expression MFI [4]: 377.69 ± 20.45
- IL17A normalized expression MFI [4]: 0.91 ± 0.17
- IL22 normalized expression MFI [4]: 1.01 ± 0.19
- IL23A normalized expression MFI [4]: 59.53 ± 3.83
- IL31 normalized expression MFI [4]: 1.14 ± 0.32
- ILIA normalized expression MFI [4]: 1126.94 ± 26.22
- IYK2 normalized expression MFI [4]: 277.52 ± 8.67
- JAK1 normalized expression MFI [4]: 195.97 ± 10.45
- JAK2 normalized expression MFI [4]: 89.16 ± 3.43
- JAK3 normalized expression MFI [4]: 0.79 ± 0.15
- LOR normalized expression MFI [4]: 38.46 ± 14.1
- S100A7 normalized expression MFI [4]: 5.73 ± 1.59
- S100A12 normalized expression MFI [4]: 1.14 ± 0.16
- SERPINB3 normalized expression MFI [4]: 2.21 ± 0.44
- SERPINB4 normalized expression MFI [4]: 3.19 ± 0.7
- STAT1 normalized expression MFI [4]: 2850.04 ± 177.51
- STAT3 normalized expression MFI [4]: 1400.77 ± 58.44
- STAT4 normalized expression MFI [4]: 6.27 ± 0.56
- STAT5A normalized expression MFI [4]: 19.2 ± 1.94
- STAT5B normalized expression MFI [4]: 41 ± 3.46
- STAT6 normalized expression MFI [4]: 985.17 ± 29.31
- TNF normalized expression MFI [4]: 28.31 ± 2.97
- VEGFA normalized expression MFI [4]: 516.11 ± 14.7
- AREG normalized expression MFI [5]: 260.61 ± 14.67
- CCL17 normalized expression MFI [5]: 1.56 ± 0.38
- CCL18 normalized expression MFI [5]: 1.49 ± 0.37
- FLG normalized expression MFI [5]: 256.93 ± 36.45
- IL6 normalized expression MFI [5]: 4.7 ± 0.32
- IL8 normalized expression MFI [5]: 61.71 ± 4.86
- IL17A normalized expression MFI [5]: 0.46 ± 0.1
- IL22 normalized expression MFI [5]: 0.61 ± 0.13
- IL23A normalized expression MFI [5]: 11.41 ± 1.43
- IL31 normalized expression MFI [5]: 0.72 ± 0.18
- ILIA normalized expression MFI [5]: 92.67 ± 5.54
- IYK2 normalized expression MFI [5]: 217.28 ± 14.28
- JAK1 normalized expression MFI [5]: 177.97 ± 14.91
- JAK2 normalized expression MFI [5]: 25.21 ± 1.12
- JAK3 normalized expression MFI [5]: 0.68 ± 0.17
- LOR normalized expression MFI [5]: 23.78 ± 7.16
- S100A7 normalized expression MFI [5]: 4.94 ± 1.59
- S100A12 normalized expression MFI [5]: 0.8 ± 0.13
- SERPINB3 normalized expression MFI [5]: 2.25 ± 0.49
- SERPINB4 normalized expression MFI [5]: 3.39 ± 0.89
- STAT1 normalized expression MFI [5]: 529.16 ± 21.86
- STAT3 normalized expression MFI [5]: 732.19 ± 23.03
- STAT4 normalized expression MFI [5]: 4.28 ± 0.61
- STAT5A normalized expression MFI [5]: 1.75 ± 0.44
- STAT5B normalized expression MFI [5]: 58.85 ± 6.21
- STAT6 normalized expression MFI [5]: 740.11 ± 34.98
- TNF normalized expression MFI [5]: 2.58 ± 0.57
- VEGFA normalized expression MFI [5]: 211.13 ± 12.18
